What was measured:
[1] = system: HCV genotype 1a Y93H variant with tyrosine 93 changed to histidine in the NS5A protein; assay: microbe, parasite or virus in culture; type: cell-based; conditions: genotype 1a Y93H replicon; test compound titrated with compound N47 fixed at 200 nM versus singly
Method in brief: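 In an HCV genotype 1a replicon cell-based assay carrying the NS5A Y93H substitution, BMS-790052 was tested alone and in combination with a fixed amount of a second test compound. The combinations were examined for synergistic activity.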

[2] = system: HCV genotype 1a L31V variant with leucine 31 changed to valine in the NS5A protein; assay: microbe, parasite or virus in culture; type: cell-based; conditions: genotype 1a L31V replicon; test compound titrated with compound N47 fixed at 200 nM versus singly

| SMILES | Fold-Synergistic G-1a (Y93H) [1] [fold] | Fold-Synergistic G-1a (L31V) [2] [fold] |
| --- | --- | --- |
| COC(=O)N[C@H](C(=O)N1[C@@H]2C[C@@H]2C[C@H]1c1cnc(-c2ccc(C#Cc3ccc(-c4ncc([C@@H]5C[C@H]6C[C@H]6N5C(=O)[C@@H](NC(=O)OC)C(C)C)[nH]4)cc3)cc2)[nH]1)C(C)C | >10 | <10 |
| COC(=O)N[C@H](C(=O)N1CCC[C@H]1c1ncc(-c2ccc(-c3ncc(-c4cnc([C@@H]5CCCN5C(=O)[C@@H](NC(=O)OC)C(C)C)[nH]4)cn3)cc2)[nH]1)C(C)C | >100 | >100 |
| COC(=O)N[C@H](C(=O)N1CCCC1c1nc2cc(-c3ccc4cc(-c5ccc(-c6cnc([C@@H]7CCCN7C(=O)[C@@H](NC(=O)OC)C(C)C)[nH]6)cc5)ccc4c3)ccc2[nH]1)C(C)C (stereo partly drawn) | >10 | >10 |
| COC(=O)N[C@H](C(=O)N1CCC[C@H]1C(=O)Nc1cc(-c2ncc(-c3ccc4nc([C@@H]5CCCN5C(=O)[C@@H](c5ccccc5)N(C)C)[nH]c4c3)o2)ccc1C)C(C)C | <10 | <10 |
| COC(=O)N[C@H](C(=O)N1C2CC2C[C@H]1c1nc2ccc3cc(C#Cc4ccc5c(ccc6nc([C@@H]7C[C@H]8C[C@H]8N7C(=O)[C@@H](NC(=O)OC)C(C)C)[nH]c65)c4)ccc3c2[nH]1)C(C)C (stereo partly drawn) | >100 | <10 |
| O=C(c1nc(Cl)cc2ccccc12)N1CCC[C@H]1c1nc2ccc(C#Cc3ccc4nc([C@@H]5CCCN5C(=O)c5nc(Cl)cc6ccccc56)[nH]c4c3)cc2[nH]1 | <10 | <10 |
| COC(=O)N[C@H](C(=O)N1[C@@H]2C[C@@H]2C[C@H]1c1nc2ccc(-c3ccc4cc(-c5ccc6nc([C@@H]7C[C@H]8C[C@H]8N7C(=O)[C@@H](NC(=O)OC)C(C)C)[nH]c6c5)ccc4c3)cc2[nH]1)C(C)C | >10 | >10 |
| COC(=O)N[C@H](C(=O)N1[C@@H]2C[C@@H]2C[C@H]1c1nc2cc(Oc3cccc(-c4ccc5[nH]c([C@@H]6C[C@H]7C[C@H]7N6C(=O)[C@@H](NC(=O)OC)C(C)C)nc5c4)c3)ccc2[nH]1)C(C)C | >10 | >10 |
| O=C(Nc1ccc(/C=C/c2ccc(NC(=O)[C@@H]3COCN3C(=O)OCc3ccccc3)cc2)cc1)[C@@H]1COCN1C(=O)OCc1ccccc1 | <10 | <10 |
| COC(=O)N[C@H](C(=O)N1[C@H](C)CC[C@H]1c1ncc(-c2ccc(-c3ccc(-c4cnc([C@@H]5CC[C@@H](C)N5C(=O)[C@@H](NC(=O)OC)C(C)C)[nH]4)cc3)cc2)[nH]1)C(C)C | >100 | >100 |
| COC(=O)N[C@H](C(=O)N1CCC[C@H]1c1ncc(C#Cc2ccc(-c3ccc4nc([C@@H]5CCCN5C(=O)[C@@H](NC(=O)OC)C(C)C)[nH]c4c3)cc2)[nH]1)C(C)C | >100 | >100 |
| COC(=O)NC(C(=O)N1[C@@H](C)CC[C@H]1c1nc2ccc3cc(C#CC#Cc4ccc5c(ccc6nc([C@@H]7CC[C@H](C)N7C(=O)C(NC(=O)OC)C7CCOCC7)[nH]c65)c4)ccc3c2[nH]1)C1CCOCC1 (stereo partly drawn) | <10 | <10 |
| COC(=O)N[C@H](C(=O)N1CCC[C@H]1c1ncc(-c2cnc(-c3ncc(-c4cnc([C@@H]5CCCN5C(=O)[C@@H](NC(=O)OC)C(C)C)[nH]4)s3)s2)[nH]1)C(C)C | >100 | >10 |
| COC(=O)N[C@H](C(=O)N1CCC[C@H]1C(=O)NC1Cc2ccc(-c3ccc4c(c3)CC(NC(=O)[C@@H]3CCCN3C(=O)[C@@H](NC(=O)OC)C(C)C)C4)cc2C1)C(C)C (stereo partly drawn) | >10 | >10 |
| COC(=O)N[C@H](C(=O)N1CCC[C@H]1c1nc2ccc3cc(-c4ccc5c(ccc6nc([C@@H]7CCCN7C(=O)[C@@H](NC(=O)OC)C(C)C)[nH]c65)c4)ccc3c2[nH]1)C(C)C | >100 | >100 |
| CN(C)[C@@H](C(=O)N1CCC[C@H]1c1nc2ccc(-c3ccc4nc([C@@H]5CCCN5C(=O)[C@@H](c5ccccc5)N(C)C)[nH]c4c3)cc2[nH]1)c1ccccc1 | <10 | <10 |
| COC(=O)N[C@H](C(=O)N1[C@@H](C)CC[C@H]1c1ncc(-c2ccc(-c3ccc4cc(-c5cnc([C@@H]6CC[C@H](C)N6C(=O)[C@@H](NC(=O)OC)C6CCOCC6)[nH]5)ccc4c3)cc2)[nH]1)C1CCOCC1 | >10 | <10 |
| COC(=O)N[C@H](C(=O)N1CCC[C@H]1c1nc2ccc(-c3cnc(-c4cccc5nc([C@@H]6CCCN6C(=O)[C@@H](NC(=O)OC)C(C)C)[nH]c45)o3)cc2[nH]1)C(C)C | >100 | <10 |

| SMILES | Fold-Synergistic G-1a (Y93H) [1] [fold] | Fold-Synergistic G-1a (L31V) [2] [fold] |
| --- | --- | --- |
| O=C(Nc1ccc(C#Cc2ccc(NC(=O)[C@@H]3CCCN3C(=O)Cc3ccccc3)cn2)nc1)[C@@H]1CCCN1C(=O)Cc1ccccc1 | <10 | <10 |
| COC(=O)N[C@H](C(=O)N1[C@@H]2CC[C@@H]2C[C@H]1c1nc(-c2ccc(-c3ccc(-c4cnc([C@@H]5C[C@H]6CC[C@H]6N5C(=O)[C@@H](NC(=O)OC)C(C)C)[nH]4)cc3)cc2)c[nH]1)C(C)C | >100 | >100 |
| COC(=O)N[C@H](C(=O)N1[C@@H]2C[C@@H]2C[C@H]1c1ncc(-c2ccc(C#Cc3ccc4c(ccc5[nH]c([C@@H]6C[C@H]7C[C@H]7N6C(=O)[C@@H](NC(=O)OC)C(C)C)nc54)c3)cc2)[nH]1)C(C)C | >10 | <10 |
| COC(=O)N[C@@H](C(=O)N1CCC[C@H]1c1nc2ccc(-c3ncc(-c4ccc(N5CCOCC5)cc4)o3)cc2[nH]1)c1ccccc1 | <10 | <10 |
| COC(=O)N[C@H](C(=O)N1CCC[C@H]1c1ncc(C#Cc2ccc3cc(C#Cc4cnc([C@@H]5CCCN5C(=O)[C@@H](NC(=O)OC)C(C)C)[nH]4)ccc3c2)[nH]1)C(C)C | <10 | >10 |
| COC(=O)N[C@H](C(=O)N1[C@@H](C)CC[C@H]1c1ncc(-c2ccc(-c3ccc4cc(-c5cnc([C@@H]6CC[C@H](C)N6C(=O)[C@@H](NC(=O)OC)C(C)C)[nH]5)ccc4c3)cc2)[nH]1)C(C)C | >100 | <10 |
| COC(=O)N[C@H](C(=O)N1CCC[C@H]1c1nc2c([nH]1)CCc1cc(C#Cc3ccc4[nH]c([C@@H]5CCCN5C(=O)[C@@H](NC(=O)OC)C(C)C)nc4c3)ccc1-2)C(C)C | >100 | >100 |
| COC(=O)N[C@H](C(=O)N1[C@@H]2C[C@@H]2C[C@H]1c1ncc(-c2ccc(-c3ccc4cc(-c5cnc([C@@H]6C[C@H]7C[C@H]7N6C(=O)[C@@H](NC(=O)OC)C(C)C)[nH]5)ccc4c3)cc2)[nH]1)C(C)C | >10 | <10 |
| COC(=O)N[C@@H](C(=O)N1CCC[C@H]1c1ncc(-c2nc3cc4sc(-c5cnc([C@@H]6CCCN6C(=O)[C@H](NC(=O)OC)c6ccccc6)[nH]5)nc4cc3s2)[nH]1)c1ccccc1 | >100 | <10 |
| O=C(Cc1ccccc1)N1CCC[C@H]1c1nc2cc(C#Cc3ccc4nc([C@@H]5CCCN5C(=O)Cc5ccccc5)[nH]c4c3)ccc2[nH]1 | <10 | <10 |
| COC(=O)N[C@H](C(=O)N1CCC[C@H]1c1ncc(-c2ccc(C#Cc3ccc4c(ccc5[nH]c([C@@H]6CCCN6C(=O)[C@@H](NC(=O)OC)C(C)C)nc54)c3)cc2)[nH]1)C(C)C | >100 | <10 |
| O=C(Nc1ccc(C#Cc2ccc(NC(=O)[C@@H]3CCCN3C(=O)CC3CC3)cc2)cc1)[C@@H]1CCCN1C(=O)CC1CC1 | <10 | <10 |
| COC(=O)N[C@H](C(=O)N1CCC[C@H]1c1nc2cc(C#Cc3ccc4[nH]c([C@@H]5CCCN5C(=O)[C@@H](NC(=O)OC)C(C)C)nc4c3)ccc2[nH]1)C(C)C | >10 | <10 |
| COC(=O)N[C@H](C(=O)N1CCC[C@H]1c1nc(-c2ccc(C#Cc3ccc4[nH]c([C@@H]5CCCN5C(=O)[C@@H](NC(=O)OC)C(C)C)nc4c3)cc2)c[nH]1)C(C)C | >100 | >100 |
| COC(=O)N[C@H](C(=O)N1CCCC1c1cn(-c2ccc(-c3ccc(-n4cnc(C5CCCN5C(=O)[C@@H](NC(=O)OC)C(C)C)c4)cc3)cc2)cn1)C(C)C (stereo partly drawn) | >10 | >10 |
| CN(C)[C@@H](C(=O)N1CCC[C@H]1C(=O)Nc1ccc(C#Cc2ccc(NC(=O)[C@@H]3CCCN3C(=O)[C@@H](c3ccccc3)N(C)C)cc2)cc1)c1ccccc1 | <10 | <10 |
| COC(=O)N[C@H](C(=O)N1CCC[C@H]1c1nc(C2=CCC(C3CC=C(c4c[nH]c([C@@H]5CCCN5C(=O)[C@@H](NC(=O)OC)C(C)C)n4)CC3)CC2)c[nH]1)C(C)C (stereo partly drawn) | >100 | >100 |
| COC(=O)N[C@H](C(=O)N1C[C@@H](C)C[C@H]1c1ncc(-c2ccc(-c3ccc(-c4cnc([C@@H]5C[C@H](C)CN5C(=O)[C@@H](NC(=O)OC)C(C)C)[nH]4)cc3)cc2)[nH]1)C(C)C | >100 | >10 |

Source: US20160158200A1, “Combinations of Hepatitis C Virus Inhibitors” (priority 2013, published 2016)
